# ChEMBL document CHEMBL4715697, “Synthesis and biological activity of benzamide DNA minor groove binders” (2016)
# Key:
# Assay type in all cases: functional
# [1] = test system: NCI-H23; assay: Growth inhibition of human NCI-H23 cells assessed as cell growth at 0.01 uM incubated for 48 hrs by sulforhodamine B assay relative to control; settings: read-out: Activity
# [2] = test system: NCI-H460; assay: Growth inhibition of human NCI-H460 cells assessed as cell growth at 0.1 uM incubated for 48 hrs by sulforhodamine B assay relative to control; settings: read-out: Activity
# [3] = test system: SNB-19; assay: Growth inhibition of human SNB-19 cells assessed as cell growth at 100 uM incubated for 48 hrs by sulforhodamine B assay relative to control; settings: read-out: Activity
# [4] = test system: MDA-MB-435; assay: Growth inhibition of human MDA-MB-435 cells incubated for 48 hrs by sulforhodamine B assay
# [5] = test system: 786-0; assay: Growth inhibition of human 786-0 cells assessed as cell growth at 1 uM incubated for 48 hrs by sulforhodamine B assay relative to control; settings: read-out: Activity
# [6] = test system: HT-29; assay: Growth inhibition of human HT-29 cells assessed as cell growth at 1 uM incubated for 48 hrs by sulforhodamine B assay relative to control; settings: read-out: Activity
# [7] = test system: KM12; assay: Growth inhibition of human KM12 cells assessed as cell growth at 0.1 uM incubated for 48 hrs by sulforhodamine B assay relative to control; settings: read-out: Activity
# [8] = test system: M14; assay: Growth inhibition of human M14 cells assessed as cell growth at 1 uM incubated for 48 hrs by sulforhodamine B assay relative to control; settings: read-out: Activity
# [9] = test system: MDA-MB-468; assay: Growth inhibition of human MDA-MB-468 cells assessed as cell growth at 0.01 uM incubated for 48 hrs by sulforhodamine B assay relative to control; settings: read-out: Activity
# [10] = test system: MCF7; assay: Growth inhibition of human MCF7 cells incubated for 48 hrs by sulforhodamine B assay
# [11] = test system: SF-268; assay: Growth inhibition of human SF-268 cells assessed as cell growth at 100 uM incubated for 48 hrs by sulforhodamine B assay relative to control; settings: read-out: Activity
# [12] = test system: EKVX; assay: Growth inhibition of human EKVX cells assessed as cell growth at 0.1 uM incubated for 48 hrs by sulforhodamine B assay relative to control; settings: read-out: Activity
# [13] = test system: NCI-H322M; assay: Growth inhibition of human NCI-H322M cells assessed as cell growth at 1 uM incubated for 48 hrs by sulforhodamine B assay relative to control; settings: read-out: Activity
# [14] = test system: NCI-H226; assay: Growth inhibition of human NCI-H226 cells assessed as cell growth at 0.1 uM incubated for 48 hrs by sulforhodamine B assay relative to control; settings: read-out: Activity
# [15] = test system: HCT-116; assay: Growth inhibition of human HCT-116 cells incubated for 48 hrs by sulforhodamine B assay
# [16] = test system: OVCAR-3; assay: Growth inhibition of human OVCAR-3 cells incubated for 48 hrs by sulforhodamine B assay
# [17] = test system: SR; assay: Growth inhibition of human SR cells assessed as cell growth at 1 uM incubated for 48 hrs by sulforhodamine B assay relative to control; settings: read-out: Activity
# [18] = test system: UO-31; assay: Growth inhibition of human UO-31 cells incubated for 48 hrs by sulforhodamine B assay
# [19] = test system: PC-3; assay: Growth inhibition of human PC-3 cells assessed as cell growth at 100 uM incubated for 48 hrs by sulforhodamine B assay relative to control; settings: read-out: Activity
# [20] = test system: SF-295; assay: Growth inhibition of human SF-295 cells incubated for 48 hrs by sulforhodamine B assay
# [21] = test system: SF-295; assay: Growth inhibition of human SF-295 cells assessed as cell growth at 1 uM incubated for 48 hrs by sulforhodamine B assay relative to control; settings: read-out: Activity
# [22] = test system: U-251; assay: Growth inhibition of human U-251 cells assessed as cell growth at 0.1 uM incubated for 48 hrs by sulforhodamine B assay relative to control; settings: read-out: Activity
# [23] = test system: SF-539; assay: Growth inhibition of human SF-539 cells assessed as cell growth at 100 uM incubated for 48 hrs by sulforhodamine B assay relative to control; settings: read-out: Activity
# [24] = test system: A549; assay: Growth inhibition of human A549/ATCC cells assessed as cell growth at 0.01 uM incubated for 48 hrs by sulforhodamine B assay relative to control; settings: read-out: Activity
# [25] = test system: BT-549; assay: Growth inhibition of human BT-549 cells incubated for 48 hrs by sulforhodamine B assay
# [26] = test system: SF-295; assay: Growth inhibition of human SF-295 cells assessed as cell growth at 0.01 uM incubated for 48 hrs by sulforhodamine B assay relative to control; settings: read-out: Activity
# [27] = test system: K562; assay: Growth inhibition of human K562 cells assessed as cell growth at 0.01 uM incubated for 48 hrs by sulforhodamine B assay relative to control; settings: read-out: Activity
# [28] = test system: NCI/ADR-RES; assay: Growth inhibition of human NCI/ADR-RES cells assessed as cell growth at 1 uM incubated for 48 hrs by sulforhodamine B assay relative to control; settings: read-out: Activity
# [29] = test system: HOP-62; assay: Growth inhibition of human HOP-62 cells assessed as cell growth at 0.01 uM incubated for 48 hrs by sulforhodamine B assay relative to control; settings: read-out: Activity
# [30] = test system: TK-10; assay: Growth inhibition of human TK-10 cells assessed as cell growth at 1 uM incubated for 48 hrs by sulforhodamine B assay relative to control; settings: read-out: Activity
# [31] = test system: MOLT-4; assay: Growth inhibition of human MOLT-4 cells assessed as cell growth at 0.01 uM incubated for 48 hrs by sulforhodamine B assay relative to control; settings: read-out: Activity
# [32] = test system: SNB-75; assay: Growth inhibition of human SNB-75 cells assessed as cell growth at 0.1 uM incubated for 48 hrs by sulforhodamine B assay relative to control; settings: read-out: Activity
# [33] = test system: UACC-62; assay: Growth inhibition of human UACC-62 cells assessed as cell growth at 100 uM incubated for 48 hrs by sulforhodamine B assay relative to control; settings: read-out: Activity
# [34] = test system: OVCAR-8; assay: Growth inhibition of human OVCAR-8 cells assessed as cell growth at 1 uM incubated for 48 hrs by sulforhodamine B assay relative to control; settings: read-out: Activity
# [35] = test system: MDA-MB-468; assay: Growth inhibition of human MDA-MB-468 cells assessed as cell growth at 0.1 uM incubated for 48 hrs by sulforhodamine B assay relative to control; settings: read-out: Activity
# [36] = read-out: LC50 (the source's name)
# [37] = read-out: pLC50 (the source's name) (converted)
compound,measurement,setting,value
CC(=O)Nc1cc(CCl)cc(NC(=O)c2ccc(C(=O)Nc3cccc(NC(=O)CCCN(C)C)c3)cc2)c1,growth at 0.01 µM,[1],96%
same,growth at 0.1 µM,[2],106%
same,growth at 100 µM,[3],117%
same,GI50,[4]; read-out: GI50,> 100 µM
same,LC50 (50% lethal concentration),[4]; read-out: LC50,> 100 µM
same,TGI,[4]; read-out: TGI,> 100 µM
same,GI50,[4]; read-out: pGI50 (converted),> 100 µM
same,LC50 (50% lethal concentration),[4]; read-out: pLC50 (converted),> 100 µM
same,TGI,[4]; read-out: pTGI,> 100 µM
same,growth at 1 µM,[5],105%
same,growth at 1 µM,[6],101%
same,growth at 0.1 µM,[7],108%
same,growth at 1 µM,[8],103%
same,growth at 0.01 µM,[9],90%
same,GI50,[10]; read-out: GI50,30.1 µM
same,CC50,[10]; [36],> 100 µM
same,TGI,[10]; read-out: TGI,> 100 µM
same,GI50,[10]; read-out: pGI50 (converted),30.2 µM
same,CC50,[10]; [37],> 100 µM
same,TGI,[10]; read-out: pTGI,> 100 µM
same,growth at 100 µM,[11],88%
same,growth at 0.1 µM,[12],87%
same,growth at 1 µM,[13],100%
same,growth at 0.1 µM,[14],92%
same,GI50,[15]; read-out: GI50,> 100 µM
same,CC50,[15]; [36],> 100 µM
same,TGI,[15]; read-out: TGI,> 100 µM
same,GI50,[15]; read-out: pGI50 (converted),> 100 µM
same,CC50,[15]; [37],> 100 µM
same,TGI,[15]; read-out: pTGI,> 100 µM
same,GI50,[16]; read-out: GI50,> 100 µM
same,LC50 (50% lethal concentration),[16]; read-out: LC50,> 100 µM
same,TGI,[16]; read-out: TGI,> 100 µM
same,GI50,[16]; read-out: pGI50 (converted),> 100 µM
same,LC50 (50% lethal concentration),[16]; read-out: pLC50 (converted),> 100 µM
same,TGI,[16]; read-out: pTGI,> 100 µM
same,growth at 1 µM,[17],118%
same,GI50,[18]; read-out: GI50,> 100 µM
same,CC50,[18]; [36],> 100 µM
same,TGI,[18]; read-out: TGI,> 100 µM
same,GI50,[18]; read-out: pGI50 (converted),> 100 µM
same,CC50,[18]; [37],> 100 µM
same,TGI,[18]; read-out: pTGI,> 100 µM
same,growth at 100 µM,[19],88%
same,GI50,[20]; read-out: GI50,37.8 µM
same,LC50,[20]; read-out: LC50,> 100 µM
same,TGI,[20]; read-out: TGI,> 100 µM
same,GI50,[20]; read-out: pGI50 (converted),38 µM
same,LC50,[20]; read-out: pLC50 (converted),> 100 µM
same,TGI,[20]; read-out: pTGI,> 100 µM
same,growth at 1 µM,[21],70%
same,growth at 0.1 µM,[22],94%
same,growth at 100 µM,[23],112%
same,growth at 0.01 µM,[24],104%
same,GI50,[25]; read-out: GI50,> 100 µM
same,CC50,[25]; [36],> 100 µM
same,TGI,[25]; read-out: TGI,> 100 µM
same,GI50,[25]; read-out: pGI50 (converted),> 100 µM
same,CC50,[25]; [37],> 100 µM
same,TGI,[25]; read-out: pTGI,> 100 µM
same,growth at 0.01 µM,[26],74%
same,growth at 0.01 µM,[27],97%
same,growth at 1 µM,[28],95%
same,growth at 0.01 µM,[29],101%
same,growth at 1 µM,[30],102%
same,growth at 0.01 µM,[31],102%
same,growth at 0.1 µM,[32],77%
same,growth at 100 µM,[33],84%
same,growth at 1 µM,[34],101%
same,growth at 0.1 µM,[35],84%
